Active and inactive are the calls of the source.
Experiments:
[1] = target: T1, MAP kinase-activated protein kinase 5 (Homo sapiens, UniProt Q8IW41)
T1 sequence (Q8IW41 whole entry): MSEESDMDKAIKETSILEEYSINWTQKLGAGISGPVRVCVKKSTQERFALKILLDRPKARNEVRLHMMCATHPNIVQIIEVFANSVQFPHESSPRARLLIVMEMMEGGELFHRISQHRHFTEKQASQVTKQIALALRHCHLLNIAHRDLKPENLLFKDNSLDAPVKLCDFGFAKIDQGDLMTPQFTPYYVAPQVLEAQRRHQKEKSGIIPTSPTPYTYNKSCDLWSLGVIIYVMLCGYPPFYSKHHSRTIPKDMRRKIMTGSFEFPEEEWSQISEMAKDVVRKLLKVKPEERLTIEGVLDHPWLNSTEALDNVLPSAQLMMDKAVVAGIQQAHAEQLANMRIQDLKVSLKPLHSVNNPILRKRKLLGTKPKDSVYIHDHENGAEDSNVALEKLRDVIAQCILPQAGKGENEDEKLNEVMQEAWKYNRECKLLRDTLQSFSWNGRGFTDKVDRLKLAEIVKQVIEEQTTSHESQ

[2] = target: DnaJ homolog subfamily A member 1 (Homo sapiens, UniProt P31689)
Chain of DnaJ homolog subfamily A member 1 (P31689 whole entry): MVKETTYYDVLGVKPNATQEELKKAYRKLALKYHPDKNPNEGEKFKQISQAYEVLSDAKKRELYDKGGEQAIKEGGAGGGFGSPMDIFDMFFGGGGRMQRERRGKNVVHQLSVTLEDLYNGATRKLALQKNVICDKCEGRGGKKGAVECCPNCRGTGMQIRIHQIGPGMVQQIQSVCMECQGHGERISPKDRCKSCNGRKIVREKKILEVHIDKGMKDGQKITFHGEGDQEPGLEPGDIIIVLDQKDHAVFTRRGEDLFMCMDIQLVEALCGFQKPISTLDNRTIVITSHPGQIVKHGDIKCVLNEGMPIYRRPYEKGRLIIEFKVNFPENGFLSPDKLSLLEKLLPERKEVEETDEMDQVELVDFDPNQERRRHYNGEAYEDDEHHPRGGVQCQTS

[3] = target: T2, Mitogen-activated protein kinase kinase kinase kinase 2 (Homo sapiens, UniProt Q12851)
T2 sequence (Q12851 whole entry): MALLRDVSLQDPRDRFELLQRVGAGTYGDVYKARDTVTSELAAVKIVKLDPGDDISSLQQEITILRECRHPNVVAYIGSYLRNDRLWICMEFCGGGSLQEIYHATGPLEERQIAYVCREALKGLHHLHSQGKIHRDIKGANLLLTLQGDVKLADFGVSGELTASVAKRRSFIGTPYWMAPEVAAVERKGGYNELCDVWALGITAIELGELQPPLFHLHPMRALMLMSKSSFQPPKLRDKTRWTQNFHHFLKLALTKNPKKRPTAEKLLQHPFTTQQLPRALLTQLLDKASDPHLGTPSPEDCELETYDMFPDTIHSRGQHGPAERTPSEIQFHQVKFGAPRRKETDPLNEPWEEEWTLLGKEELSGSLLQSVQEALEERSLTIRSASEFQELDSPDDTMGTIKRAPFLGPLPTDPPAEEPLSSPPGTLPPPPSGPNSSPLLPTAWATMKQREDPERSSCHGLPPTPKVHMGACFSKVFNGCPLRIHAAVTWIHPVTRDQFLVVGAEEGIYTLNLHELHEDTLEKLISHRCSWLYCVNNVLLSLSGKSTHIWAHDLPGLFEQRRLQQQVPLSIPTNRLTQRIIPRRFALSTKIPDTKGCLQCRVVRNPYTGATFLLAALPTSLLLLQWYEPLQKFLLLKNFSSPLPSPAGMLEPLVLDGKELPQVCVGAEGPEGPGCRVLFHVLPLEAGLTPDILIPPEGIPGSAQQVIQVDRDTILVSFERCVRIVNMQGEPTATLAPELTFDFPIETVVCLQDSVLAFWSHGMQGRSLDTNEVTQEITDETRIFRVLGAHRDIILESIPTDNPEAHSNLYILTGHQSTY

[4] = target: U5 small nuclear ribonucleoprotein 200 kDa helicase (Homo sapiens, UniProt O75643)
Chain of U5 small nuclear ribonucleoprotein 200 kDa helicase (O75643 whole entry): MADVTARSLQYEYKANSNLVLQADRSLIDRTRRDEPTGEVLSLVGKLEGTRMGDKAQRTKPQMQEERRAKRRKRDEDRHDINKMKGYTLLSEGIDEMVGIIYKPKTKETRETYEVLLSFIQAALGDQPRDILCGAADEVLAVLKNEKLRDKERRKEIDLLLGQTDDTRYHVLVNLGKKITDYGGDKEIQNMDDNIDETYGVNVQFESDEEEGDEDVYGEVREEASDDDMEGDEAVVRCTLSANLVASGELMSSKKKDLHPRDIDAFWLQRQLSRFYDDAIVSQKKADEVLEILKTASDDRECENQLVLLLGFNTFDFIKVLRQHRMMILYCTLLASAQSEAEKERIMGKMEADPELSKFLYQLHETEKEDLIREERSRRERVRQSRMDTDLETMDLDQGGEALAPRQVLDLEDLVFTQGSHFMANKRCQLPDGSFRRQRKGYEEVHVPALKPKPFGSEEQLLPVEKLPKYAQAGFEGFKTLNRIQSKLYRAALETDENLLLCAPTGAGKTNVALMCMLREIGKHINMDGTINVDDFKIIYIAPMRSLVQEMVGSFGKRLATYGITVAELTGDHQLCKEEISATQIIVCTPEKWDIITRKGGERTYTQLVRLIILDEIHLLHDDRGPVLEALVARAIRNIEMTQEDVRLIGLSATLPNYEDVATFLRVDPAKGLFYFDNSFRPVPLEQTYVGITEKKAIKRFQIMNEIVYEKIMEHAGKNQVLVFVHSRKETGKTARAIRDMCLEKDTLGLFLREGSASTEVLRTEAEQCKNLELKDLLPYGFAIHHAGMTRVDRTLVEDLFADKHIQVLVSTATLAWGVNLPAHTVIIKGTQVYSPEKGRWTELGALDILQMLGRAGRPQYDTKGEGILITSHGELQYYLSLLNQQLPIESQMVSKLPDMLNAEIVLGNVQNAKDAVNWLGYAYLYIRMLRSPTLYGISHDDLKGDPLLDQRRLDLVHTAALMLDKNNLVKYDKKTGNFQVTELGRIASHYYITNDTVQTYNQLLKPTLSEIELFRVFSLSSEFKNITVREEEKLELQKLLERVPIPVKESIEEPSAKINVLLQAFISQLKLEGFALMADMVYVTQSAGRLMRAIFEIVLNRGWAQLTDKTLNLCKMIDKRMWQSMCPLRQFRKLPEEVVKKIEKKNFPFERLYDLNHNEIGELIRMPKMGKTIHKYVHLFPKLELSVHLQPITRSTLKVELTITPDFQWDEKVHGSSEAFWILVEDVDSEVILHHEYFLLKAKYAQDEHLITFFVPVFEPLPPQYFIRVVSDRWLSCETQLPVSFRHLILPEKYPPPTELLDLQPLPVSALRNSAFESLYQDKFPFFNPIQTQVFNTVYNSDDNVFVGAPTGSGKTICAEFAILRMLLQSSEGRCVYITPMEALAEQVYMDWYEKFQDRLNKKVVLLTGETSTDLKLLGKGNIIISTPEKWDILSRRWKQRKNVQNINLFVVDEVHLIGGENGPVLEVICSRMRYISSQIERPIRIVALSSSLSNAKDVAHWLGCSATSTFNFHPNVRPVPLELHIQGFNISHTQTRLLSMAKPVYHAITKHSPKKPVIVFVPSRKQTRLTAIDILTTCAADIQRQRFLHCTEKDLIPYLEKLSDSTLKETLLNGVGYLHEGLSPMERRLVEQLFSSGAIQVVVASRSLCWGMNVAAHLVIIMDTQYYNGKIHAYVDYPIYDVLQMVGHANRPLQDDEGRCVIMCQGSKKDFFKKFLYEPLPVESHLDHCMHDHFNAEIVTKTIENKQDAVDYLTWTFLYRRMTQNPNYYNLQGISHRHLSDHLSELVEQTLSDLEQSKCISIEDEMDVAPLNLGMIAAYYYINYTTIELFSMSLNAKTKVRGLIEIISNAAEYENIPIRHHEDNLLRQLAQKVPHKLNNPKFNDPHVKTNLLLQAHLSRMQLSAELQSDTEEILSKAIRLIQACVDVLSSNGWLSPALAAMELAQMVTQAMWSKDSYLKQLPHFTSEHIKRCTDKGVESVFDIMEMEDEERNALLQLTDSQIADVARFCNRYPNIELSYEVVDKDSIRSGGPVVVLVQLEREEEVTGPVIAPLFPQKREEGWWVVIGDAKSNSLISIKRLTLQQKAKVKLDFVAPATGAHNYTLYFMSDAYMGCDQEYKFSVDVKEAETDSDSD

[5] = target: Mitogen-activated protein kinase 7 (Homo sapiens, UniProt Q13164)
Chain of Mitogen-activated protein kinase 7 (Q13164 whole entry): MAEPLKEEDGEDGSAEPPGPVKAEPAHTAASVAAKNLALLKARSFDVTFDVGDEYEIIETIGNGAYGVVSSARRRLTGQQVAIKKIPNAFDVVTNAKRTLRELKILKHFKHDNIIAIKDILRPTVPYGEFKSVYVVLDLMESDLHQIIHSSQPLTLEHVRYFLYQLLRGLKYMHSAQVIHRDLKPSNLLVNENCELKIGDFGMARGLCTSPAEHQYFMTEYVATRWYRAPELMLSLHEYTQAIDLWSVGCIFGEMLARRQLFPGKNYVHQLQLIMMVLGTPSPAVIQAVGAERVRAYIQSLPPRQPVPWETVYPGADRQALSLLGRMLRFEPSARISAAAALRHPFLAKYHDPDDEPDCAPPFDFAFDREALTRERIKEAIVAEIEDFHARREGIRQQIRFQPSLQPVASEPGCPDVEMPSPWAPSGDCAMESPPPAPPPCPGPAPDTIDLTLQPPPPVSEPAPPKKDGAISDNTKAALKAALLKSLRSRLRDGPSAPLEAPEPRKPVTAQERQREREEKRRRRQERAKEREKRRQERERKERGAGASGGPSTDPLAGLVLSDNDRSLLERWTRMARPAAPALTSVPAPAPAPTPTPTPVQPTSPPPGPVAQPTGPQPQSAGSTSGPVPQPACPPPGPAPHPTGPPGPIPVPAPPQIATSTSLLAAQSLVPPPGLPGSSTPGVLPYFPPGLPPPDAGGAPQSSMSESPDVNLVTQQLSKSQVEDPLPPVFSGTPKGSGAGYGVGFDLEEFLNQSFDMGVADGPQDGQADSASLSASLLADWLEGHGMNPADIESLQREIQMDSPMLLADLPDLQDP

[6] = target: Mitogen-activated protein kinase kinase kinase kinase 1 (Homo sapiens, UniProt Q92918)
Chain of Mitogen-activated protein kinase kinase kinase kinase 1 (Q92918 whole entry): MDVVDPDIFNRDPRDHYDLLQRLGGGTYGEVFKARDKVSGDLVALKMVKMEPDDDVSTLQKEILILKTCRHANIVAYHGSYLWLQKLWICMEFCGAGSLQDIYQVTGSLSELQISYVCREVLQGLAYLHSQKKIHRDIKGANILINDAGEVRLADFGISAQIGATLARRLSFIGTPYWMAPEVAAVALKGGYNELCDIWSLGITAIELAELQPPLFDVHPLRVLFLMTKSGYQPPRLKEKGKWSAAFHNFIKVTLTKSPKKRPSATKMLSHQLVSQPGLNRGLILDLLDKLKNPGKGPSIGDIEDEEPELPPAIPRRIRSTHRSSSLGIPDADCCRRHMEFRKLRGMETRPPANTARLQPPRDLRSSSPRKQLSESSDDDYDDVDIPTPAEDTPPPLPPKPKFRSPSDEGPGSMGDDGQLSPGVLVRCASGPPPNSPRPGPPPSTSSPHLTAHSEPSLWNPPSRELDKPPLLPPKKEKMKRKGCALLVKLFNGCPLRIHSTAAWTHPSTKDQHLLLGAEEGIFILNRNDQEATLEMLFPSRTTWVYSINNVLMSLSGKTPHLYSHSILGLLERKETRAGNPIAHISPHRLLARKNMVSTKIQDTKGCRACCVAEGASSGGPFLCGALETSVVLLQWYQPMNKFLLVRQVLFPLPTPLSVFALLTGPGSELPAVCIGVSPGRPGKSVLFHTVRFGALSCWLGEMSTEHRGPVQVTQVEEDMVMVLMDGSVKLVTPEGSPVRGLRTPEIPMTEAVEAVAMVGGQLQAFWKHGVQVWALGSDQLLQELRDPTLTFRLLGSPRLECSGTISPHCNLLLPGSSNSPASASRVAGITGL

[7] = target: Ribosomal protein S6 kinase alpha-1 (Homo sapiens, UniProt Q15418)
Chain of Ribosomal protein S6 kinase alpha-1 (Q15418 whole entry): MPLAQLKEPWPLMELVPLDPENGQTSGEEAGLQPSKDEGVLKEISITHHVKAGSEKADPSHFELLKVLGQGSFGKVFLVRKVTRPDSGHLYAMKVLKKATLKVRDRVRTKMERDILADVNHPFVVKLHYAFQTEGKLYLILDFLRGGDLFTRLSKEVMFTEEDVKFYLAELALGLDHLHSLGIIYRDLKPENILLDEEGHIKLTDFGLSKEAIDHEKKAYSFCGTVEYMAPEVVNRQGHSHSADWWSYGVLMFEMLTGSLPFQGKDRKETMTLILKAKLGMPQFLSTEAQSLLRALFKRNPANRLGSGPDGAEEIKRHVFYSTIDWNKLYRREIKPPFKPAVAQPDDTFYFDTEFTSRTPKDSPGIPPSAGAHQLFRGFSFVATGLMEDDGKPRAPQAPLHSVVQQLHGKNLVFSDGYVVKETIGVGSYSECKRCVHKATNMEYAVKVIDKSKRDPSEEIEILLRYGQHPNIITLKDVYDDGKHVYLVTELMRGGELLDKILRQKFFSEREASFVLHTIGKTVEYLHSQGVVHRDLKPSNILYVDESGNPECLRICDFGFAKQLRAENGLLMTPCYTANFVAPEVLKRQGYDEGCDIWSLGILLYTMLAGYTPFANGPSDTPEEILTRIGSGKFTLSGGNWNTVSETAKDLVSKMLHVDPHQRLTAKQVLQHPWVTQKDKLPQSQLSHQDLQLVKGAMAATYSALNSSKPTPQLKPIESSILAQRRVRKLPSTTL

[8] = target: T3, Very long-chain specific acyl-CoA dehydrogenase, mitochondrial (Homo sapiens, UniProt P49748)
T3 sequence (P49748 whole entry): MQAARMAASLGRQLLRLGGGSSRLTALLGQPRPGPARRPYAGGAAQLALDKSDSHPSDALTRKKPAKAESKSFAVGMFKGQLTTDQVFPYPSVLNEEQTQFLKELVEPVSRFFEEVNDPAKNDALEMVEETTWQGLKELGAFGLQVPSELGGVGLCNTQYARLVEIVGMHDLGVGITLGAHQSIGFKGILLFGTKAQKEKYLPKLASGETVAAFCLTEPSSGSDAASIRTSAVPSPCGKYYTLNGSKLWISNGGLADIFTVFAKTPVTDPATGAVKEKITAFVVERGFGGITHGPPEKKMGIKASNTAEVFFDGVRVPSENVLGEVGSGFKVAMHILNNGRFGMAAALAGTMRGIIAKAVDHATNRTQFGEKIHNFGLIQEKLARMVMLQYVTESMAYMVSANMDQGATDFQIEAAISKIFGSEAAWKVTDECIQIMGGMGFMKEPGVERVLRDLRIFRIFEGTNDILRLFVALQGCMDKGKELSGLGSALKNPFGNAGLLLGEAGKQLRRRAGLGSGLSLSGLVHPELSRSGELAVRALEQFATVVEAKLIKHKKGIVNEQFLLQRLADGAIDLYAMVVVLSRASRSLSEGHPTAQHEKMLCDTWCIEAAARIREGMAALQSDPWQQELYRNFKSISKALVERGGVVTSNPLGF

[9] = target: T4, ATP-dependent RNA helicase DDX1 (Homo sapiens, UniProt Q92499)
T4 sequence (Q92499 whole entry): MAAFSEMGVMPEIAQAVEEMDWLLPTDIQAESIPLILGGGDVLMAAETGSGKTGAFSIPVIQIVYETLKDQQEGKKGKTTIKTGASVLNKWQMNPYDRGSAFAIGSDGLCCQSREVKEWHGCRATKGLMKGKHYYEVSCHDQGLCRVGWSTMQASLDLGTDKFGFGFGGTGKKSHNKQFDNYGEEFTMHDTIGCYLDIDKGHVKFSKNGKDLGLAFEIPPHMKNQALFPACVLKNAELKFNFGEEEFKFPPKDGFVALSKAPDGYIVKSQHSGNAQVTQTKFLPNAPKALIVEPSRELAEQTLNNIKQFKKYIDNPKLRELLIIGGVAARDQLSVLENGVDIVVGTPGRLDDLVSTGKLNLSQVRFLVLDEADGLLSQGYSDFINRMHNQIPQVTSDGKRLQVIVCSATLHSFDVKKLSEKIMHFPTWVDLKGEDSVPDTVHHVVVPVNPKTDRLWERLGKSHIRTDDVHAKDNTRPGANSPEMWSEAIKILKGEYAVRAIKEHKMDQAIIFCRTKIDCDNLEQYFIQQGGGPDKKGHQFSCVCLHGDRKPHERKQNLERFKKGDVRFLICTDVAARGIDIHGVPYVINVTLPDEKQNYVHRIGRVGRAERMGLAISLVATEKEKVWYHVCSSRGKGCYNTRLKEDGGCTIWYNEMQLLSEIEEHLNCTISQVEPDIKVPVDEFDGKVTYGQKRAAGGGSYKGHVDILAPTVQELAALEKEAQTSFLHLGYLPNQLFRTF

Measured: Kd
Also: in the data inactive means no Kd found up to 30 µM.

O[C@H]1CC[C@H](Nc2ncc3nc(Nc4c(F)cc(F)cc4F)n([C@H]4CCOC4)c3n2)CC1 [TANZISERTIB]
inactive: [1] > 30 µM | [2] > 30 µM | [3] > 30 µM | [4] > 30 µM | [5] > 30 µM | [6] > 30 µM | [7] > 30 µM | [8] > 30 µM | [9] > 30 µM

FC(F)(F)c1ccc(CNc2ccc(Cc3c[nH]c4ncc(Cl)cc34)cn2)cn1 [PEXIDARTINIB]
inactive: [1] > 30 µM | [2] > 30 µM | [3] > 30 µM | [4] > 30 µM | [5] > 30 µM | [6] > 30 µM | [7] > 30 µM | [8] > 30 µM | [9] > 30 µM

CNC(=O)c1cc(COc2nnc(Nc3ccc(Cl)cc3)c3ccoc23)ccn1 [TELATINIB]
inactive: [1] > 30 µM | [2] > 30 µM | [3] > 30 µM | [4] > 30 µM | [5] > 30 µM | [6] > 30 µM | [7] > 30 µM | [8] > 30 µM | [9] > 30 µM

COc1cc2ncnc3c2cc1OCCCCCN(C)Cc1ccc(Br)cc1N3 [JNJ-26483327]
inactive: [1] > 30 µM | [2] > 30 µM | [3] > 30 µM | [4] > 30 µM | [5] > 30 µM | [6] > 30 µM | [7] > 30 µM | [8] > 30 µM | [9] > 30 µM

CNC(=O)c1cccc(-c2ccc3c(N4CCOC[C@@H]4C)nc(N4CCOC[C@@H]4C)nc3n2)c1 [VISTUSERTIB]
inactive: [1] > 30 µM | [2] > 30 µM | [3] > 30 µM | [4] > 30 µM | [5] > 30 µM | [6] > 30 µM | [7] > 30 µM | [8] > 30 µM | [9] > 30 µM

CC1(COc2ccc3c(c2)ncn3-c2ccc3cccc(N4CCC(N)CC4)c3n2)COC1 [CRENOLANIB]
inactive: [1] > 30 µM | [2] > 30 µM | [3] > 30 µM | [4] > 30 µM | [5] > 30 µM | [6] > 30 µM | [7] > 30 µM | [8] > 30 µM | [9] > 30 µM

NC(=O)c1ccc(N(C(N)=O)c2c(F)cccc2F)nc1-c1ccc(F)cc1F [VX-702]
inactive: [1] > 30 µM | [2] > 30 µM | [3] > 30 µM | [4] > 30 µM | [5] > 30 µM | [6] > 30 µM | [7] > 30 µM | [8] > 30 µM | [9] > 30 µM

O=C(Nc1ccc(OC(F)(F)F)cc1)c1sccc1NCc1ccnc2ccccc12 [OSI-930]
inactive: [1] > 30 µM | [2] > 30 µM | [3] > 30 µM | [4] > 30 µM | [5] > 30 µM | [6] > 30 µM | [7] > 30 µM | [8] > 30 µM | [9] > 30 µM
